Reference: ChEMBL document CHEMBL5532764, “Identification of SARS-CoV-2 Mpro inhibitors through deep reinforcement learning for de novo drug design and computational chemistry approaches” (RSC Med Chem, 2024)
pIC50: −log10 of the molar value.

target: Procathepsin L (Homo sapiens, UniProt P07711); experiment: Inhibition of human liver Cathepsin L using Z-Phe-Arg7-amido-4-methylcoumarin hydrochloride as substrate by FRET assay
Sequence (P07711 whole entry): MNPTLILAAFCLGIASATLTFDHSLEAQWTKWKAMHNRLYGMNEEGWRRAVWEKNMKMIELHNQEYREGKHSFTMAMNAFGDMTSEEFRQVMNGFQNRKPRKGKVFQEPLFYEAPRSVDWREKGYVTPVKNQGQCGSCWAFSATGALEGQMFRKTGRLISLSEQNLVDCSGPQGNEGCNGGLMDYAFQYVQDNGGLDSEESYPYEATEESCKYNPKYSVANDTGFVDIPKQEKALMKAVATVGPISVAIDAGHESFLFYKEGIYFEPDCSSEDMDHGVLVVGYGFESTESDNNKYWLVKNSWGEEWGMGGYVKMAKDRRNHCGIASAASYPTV

O=C1N(Cc2ccccc2Cl)CCN1c1cncc2ccc(Cl)cc12 and O=C1N(Cc2ccc(Cl)cc2Cl)CCN1c1cncc2ccccc12 cannot be ordered by pIC50: less than 3.90 for the first, less than 3.90 for the second.

O=C(c1cccnc1)N1CCN(Cc2cc(Cl)cc(Cl)c2OC(F)F)CC1 and O=C(c1cccnc1)N1CCN(Cc2cccc(Cl)c2Cl)CC1 cannot be ordered by pIC50: less than 3.90 for the first, less than 3.90 for the second.

Cc1cncc(CC(=O)N2CCC[C@H]2c2cccc(Cl)c2)c1 and Cc1cncc(CC(=O)N2CCc3cc(Cl)c(Cl)cc3C2)c1 cannot be ordered by pIC50: less than 3.90 for the first, less than 3.90 for the second.

N#Cc1ccccc1CN1CCCN(C(=O)c2cncc(Cl)c2)CC1 and O=C(c1cncc(Cl)c1)N1CCCN(Cc2ccccc2Cl)CC1 cannot be ordered by pIC50: less than 3.90 for the first, less than 3.90 for the second.

O=C(Cc1cccnc1)N1CCc2c(Cl)cc(Cl)cc2C1 and O=C(c1cncc2ccc(F)cc12)N1CCN(Cc2ccc(Cl)cc2Cl)CC1 cannot be ordered by pIC50: less than 3.90 for the first, less than 3.90 for the second.

Going from O=C1N[C@@H](Cc2cc(Cl)ccc2F)C(=O)N1c1cncc(F)c1 to O=C(Nn1cnc2c(F)cc(F)cc21)C1COc2cc(Cl)c(Cl)cc21 (racemic), the pIC50 rises from less than 3.90 to 3.99.

target: Replicase polyprotein 1ab (Severe acute respiratory syndrome coronavirus 2, UniProt P0DTD1)

O=C(c1cccnc1)N1CCN(Cc2cc(Cl)cc(Cl)c2OC(F)F)CC1 and O=C(c1cccnc1)N1CCN(Cc2cccc(Cl)c2Cl)CC1 are the same in pIC50: 4.20 for the first, 4.20 for the second.
